In brackets after ≈: the same amount, converted by molar mass.

The test system of one data set is A549. Nature of the data set: Compound was tested for cytotoxic activity against human lung carcinoma (A-549). The format is functional. Conditions: for EC50: Homo sapiens, A549, read-out: ED50 (the source's name).
The test system of a further data set is HT-29. Nature of the data set: Compound was tested for cytotoxic activity against human colon adenocarcinoma (HT-29). In kind it is functional. Conditions: for EC50: Homo sapiens, HT-29, read-out: ED50 (the source's name).
The test system of a further data set is MCF7. Description: Compound was tested for cytotoxic activity against human breast carcinoma (MCF-7). The format is functional. Conditions: for EC50: Homo sapiens, MCF7, read-out: ED50 (the source's name).
Data set [1] in a line: (§1) Compound was tested for lethal concentration in Brine shrimp lethality test (BST). Conditions: artemia, in vivo. The format is organism-based.
A further data set relates to Artemia. The data set is described as §1. In kind it is organism-based. Conditions: in vivo.

Regarding `CCCCCCCCCCC(O)C(O)CCC(O)C1CCC(C2CCC(CCCCCCCC3CC(CC(C)=O)C(=O)O3)O2)O1` (stereo in doubt), the values for the EC50 with A549, in the data set with HT-29 and in the data set on MCF7 were 0.0337 ng/mL (≈ 0.0527 nM), 0.229 µg/mL (≈ 358 nM) and 1.07 ng/mL (≈ 1.67 nM), respectively. The LC50 in data set [1] worked out at 0.137 µg/mL (≈ 214 nM).
As to `COc1cccc2c1C(=O)c1c(O)c3c(c(O)c1C2=O)C[C@@](O)(C(=O)CO)C[C@@H]3O[C@H]1C[C@H](N)[C@H](O)[C@H](C)O1` [DOXORUBICIN], the EC50 in the data set with A549 came out at 0.153 ng/mL (≈ 0.281 nM); in the data set with HT-29, 0.000558 µg/mL (≈ 1.03 nM); in the data set with MCF7, 13.8 ng/mL (≈ 25.4 nM). For the same compound, in the data set on Artemia, the LC50 was 0.08 µg/mL (≈ 147 nM).
Take `CCCCCCCCCCC(O)C(O)CCC(O)C1CCC(C2CCC(CCCCCCCC3CC(CC(C)=O)C(=O)O3)O2)O1` (trans isomer): the values for the ED50 in the data set on A549, in the data set with HT-29 and in the data set with MCF7 were 0.0337 ng/mL (≈ 0.0527 nM), 0.229 µg/mL (≈ 358 nM) and 1.07 ng/mL (≈ 1.67 nM), respectively. The compound also gave an LC50 in the data set with Artemia of 0.137 µg/mL (≈ 214 nM).

As a reminder, the LC50 is the concentration that kills 50% of the test population.

Source of the values: ChEMBL document CHEMBL1127239, “Novel cytotoxic annonaceous acetogenins: (2,4-cis and trans)-bulladecinones from annona bullata (annonaceae)” (Bioorg Med Chem Lett, 1994).
